Like-named read-outs stand apart in the source and are kept apart here.
Columns and labels:
[1] = imaging, cited from earlier work
[2] = cited from earlier work
[3] = cited from earlier work; remark: listed apart in the source
[4] = Acute toxicity study, single intravenous injection; type: in vivo; settings: Wistar rats
Description: Supplementary Materials: Evaluation of the Enantiomer Specific Biokinetics and Radiation Doses of [18F]Fluspidine—A New Tracer in Clinical
Translation for Imaging of σ1 Receptors […]
Supplemental Methods and Results
Animal Toxicity Study of (S)-(−)-Fluspidine
The purpose of this study was to assess the acute toxicity of (S)-(−)-fluspidine when administered by a single intravenous injection to rats followed by an observation period of 2 or 15 day (in accordance with EU cGLP). Briefly, the study was performed with 4 test groups, including 1 control (saline and dimethylsulfoxide) and 3 dose groups (6.2, 62 and 620 µg/kg, (S)- (−)ﬂuspidine), with Wistar rats (60 m, 60 f, 12 weeks) divided into two experiments: day 2 (40 males and 40 females) and day 15 (20 males and 20 females). The animals were weighted and allocated to the test groups based on their actual body weights. The animals were sacrificed at two time periods (day 2 and day 15 after test item administration) and then examined macroscopically and histopathologically. In addition the following parameters were evaluated: mortality, clinical observation (spasms, tremor and hyperactivity), body weights, food consumption, haematology (white blood cells, red blood cells, hemoglobin, hematocrit, mean corpuscular volume, mean corpuscular hemoglobin, platelets, lympohcytes, neutrophils, eosinophils, basophils, monocytes), clinical chemistry (alkaline phosphatase, aspartate aminotransferase, alanine aminotransferase, glucose, cholesterol, triacylglycerols, creatinine, urea, bilirubin, albumin, calcium, phosphorus, sodium, potassium chloride), pathology and histopathology. […]
in either gender were detected. The food consumption corresponded with body weight development. All haematology parameter´s values on day 2 and day 15 were within physiological range for this species. Individual divergences of some values of the haematology parameters were slight and not connected with treatment.
There were no findings in clinical chemistry parameters which could be definitively considered as adverse. The average values of all test groups were within the historical control ranges. Occasional changes had no dose relationship, they were considered to be a result of intraindividual and interindividual variability for this species. […]
histopathological parameters on day 2 and day 15. The no observed effect level (NOEL) of (S)- (−)-fluspidine after single intravenous administration in this study for both day 2 and day 15 was determined to be 620 µg/kg.

[5] = set-up: method as in PMID 12573321, PMID 12589478; settings: cited from earlier work
σ1 receptors = target: σ1 receptors; set-up: method as in PMID 24130175; settings: read-out: Ki (affinity towards σ1 receptors); cited from earlier work

In the case of `[18F]c1ccc(C2CC3CCCC2N3)cn1` (single isomer, unassigned; (+)) [(+)-[^18F]flubatine], the “ED Preclinical” value ([1]; piglets) is listed as 14.3 μSv/MBq, the “ED Clinical” value [2] is listed as 23.0 μSv/MBq and the “ED Preclinical” value ([3]; mouse, imaging) is listed as 12.1 μSv/MBq.

In the case of `[18F]c1ccc([C@@H]2C[C@H]3CCC[C@@H]2N3)cn1` [(−)-[^18F]flubatine], the “ED Preclinical” value ([1]; piglet) is given as 14.7 μSv/MBq, the “ED Clinical” value [2] is given as 23.4 μSv/MBq and the “ED Preclinical” value ([3]; mouse) is given as 12.5 μSv/MBq.

For `COc1ccc(OCC[18F])c(CN(C(C)=O)c2cc(F)ccc2Oc2ccccc2)c1` [[^18F]FEDAA1106], the “ED Clinical” value [2] is listed as 36 μSv/MBq, the “ED Preclinical” value ([3]; female mouse) is listed as 26.0 μSv/MBq and the “ED Preclinical” value ([3]; male mouse) is listed as 21.0 μSv/MBq.

For `[18F]c1ncccc1OC[C@@H]1CCN1` [2-[^18F]F-A85380], the “ED Clinical” value [2] is listed as 19.4 μSv/MBq.

In the case of `FCC[C@@H]1OC2(CCN(Cc3ccccc3)CC2)c2ccccc21` [(S)-(−)-fluspidine], the “body weights, control vs treated groups” value ([4]; single i.v. 6.2, 62 and 620 µg/kg, either gender) is reported as “No statistically significant differences in body weights”, the “adverse findings in clinical chemistry parameters” value ([4]; single i.v.) is reported as “no findings” and the “effect on haematology parameters” value ([4]; single i.v., day 2 and day 15) is reported as “No test item effect”. The “toxicological changes in pathological and histopathological parameters” value ([4]; single intravenous administration, day 2 and day 15) was “did not cause toxicological changes” and the “no observed effect level (NOEL)” value ([4]; single intravenous administration, day 2 and day 15, highest tested dose) was 0.62 mg/kg.

For `OC[C@H]1OC(O)[C@H]([18F])[C@@H](O)[C@@H]1O` (stereo partly shown) [[^18F]FDG], the “ED Clinical” value [2] is listed as 19.0 μSv/MBq.

In the case of `N[C@@H](Cc1ccc(OCC[18F])cc1)C(=O)O` [[^18F]FET], the “ED Clinical” value [2] is given as 16.5 μSv/MBq and the “ED Preclinical” value [5] is given as 9.0 μSv/MBq.

For `FCC[C@H]1OC2(CCN(Cc3ccccc3)CC2)c2ccccc21` [(R)-(+)-[^18F]fluspidine], the Ki (σ1 receptors) is given as 570 pM.
